Consider three molecules from US20220000117A1, “METHOD FOR CONTROLLING DISEASES IN SMALL GRAIN CEREALS, SEED OF SMALL GRAIN CEREALS, AND METHOD FOR SUPPRESSING LODGING DAMAGE IN SMALL GRAIN CEREALS” (KUMIAI CHEMICAL INDUSTRY CO., LTD., priority 2019, published 2022).

In series [1] the test system is wheat (variety: Norin No. 61). In words: Test Example 2: emergence rate of treated wheat seed. Type of series: in vivo. Conditions: 10 days after seeding. The method, then: (§1) Seed having a mass of 1 kg of wheat (variety: Norin No. 61) was mixed into 100 ml of suspension water containing 5 g or 0.5 g of dichlobentiazox or isotianil (commercial Routine flowable was used, “Routine” is a registered trademark) and air-dried, and then, 15 seeds were sown in a plastic pot of 9 cm×9 cm containing horticultural soil and managed in a greenhouse. The number of emerged seeds was investigated 10 days after seeding, and an emergence rate was calculated (Examples 2 to 5). On day 49 after seeding, conidiospores of powdery mildew were sifted over leaves of wheat seedlings and inoculated onto the leaves, a lesion area ratio of powdery mildew in a first leaf was investigated 59 days after seeding according to the criteria in Table 1, and the degree of disease occurrence was calculated by the above calculation formula (1).

Series [2] has as its system powdery mildew. Nature of the series: Test Example 2: control test of wheat powdery mildew, pot in greenhouse, inoculated, wheat variety Norin No. 61. Type of series: in vivo, Blumeria graminis. The note with it: for Degree of Disease Occurrence: inoculated day 49, first leaf, 59 days after seeding. The method, then: (§2) Degree of Disease Occurrence=Σ(Index×Number of Leaves of Index)/(4×Number of Investigated Leaves)×100 (1)
as §1

Series [3] deals with powdery mildew. Nature of the series: Test Example 1: control test of wheat powdery mildew, field, wheat variety Haruyutaka. Type of series: in vivo, Blumeria graminis. Conditions: for Degree of Disease Occurrence / Disease Leaf Rate (%): flag leaves, 79 days after seeding. The method, then:
Seed of wheat (variety: Haruyutaka) sterilized in advance with commercial Benlate T wettable powder 20 (“Benlate” is a registered trademark) was used. In Example 1, seed having a mass of 1 kg was mixed into 100 ml of suspension water containing 5 g of dichlobentiazox, air-dried, and then, stripe-sown in a field with a furrow width of 30 cm and a ratio of 163 kg/ha (417 seeds/m^2). In contrast, in Comparative Example 1, seed which had not treated with dichlobentiazox was sown in a field in the same manner, and a spray solution corresponding to that obtained by suspending 500 g of dichlobentiazox in 200 liters of water per 1 ha was sprayed on foliage of wheat three times, during an ear emergence period (63 days after seeding), a flowering period (70 days after seeding), and a flowering end period (77 days after seeding). Similarly, in place of 500 g of dichlobentiazox in Comparative Example 1, 250 g of azoxystrobin (commercial Amistar 20 flowable was used. “Amistar” is a registered trademark) was used in Comparative Example 2, and 125 g of propiconazole (commercial Tilt emulsifiable concentrate 25 was used, “Tilt” is a registered trademark) was used in Comparative Example 3. The presence or absence of disease occurrence and a lesion area ratio of powdery mildew in flag leaves of 30 stems were investigated 79 days after seeding according to the criteria in Table 1, and a disease leaf rate and the degree of disease occurrence were calculated by the following calculation formula (1).
as §2

Series [4] concerns wheat (variety: Haruyutaka). Nature of the series: Test Example 6: evaluation test of shortening of wheat (culm length, seed yield), field. Type of series: in vivo.
Series [5] has as its system wheat (variety: Norin No. 61). In words: Test Example 3: emergence rate of wheat seed. Type of series: in vivo. As for the experimental part:
(§3) Seed having a mass of 1 kg of wheat (variety: Norin No. 61) was mixed into 100 ml of suspension water containing 5 g or 0.5 g of dichlobentiazox or isotianil and air-dried, and then, 12 seeds were sown in a plastic cup having a diameter of 6 cm containing river sand and managed in a greenhouse. The number of emerged seeds was investigated nine days after seeding, and an emergence rate was calculated (Examples 6 to 9). In Comparative Examples 6 to 9, 20 ml of suspension water of an active ingredient, which had been adjusted to have a concentration shown in Table 4, was sprayed in a frame of 45 cm×45 cm in which a pot of wheat seedlings was placed (corresponding to 1000 L/ha) 14 days after seeding. On day 14 after seeding, conidiospores of powdery mildew were sifted over leaves of wheat seedlings and inoculated onto the leaves (after the sprayed liquid was dried in the case of Comparative Examples), a lesion area ratio of powdery mildew in a first leaf was investigated 19 days after seeding according to the criteria in Table 1, and the degree of disease occurrence was calculated by the above calculation formula (1).

Series [6] relates to powdery mildew. Nature of the series: Test Example 3: control test of wheat powdery mildew, cup in greenhouse, inoculated. Type of series: in vivo, Blumeria graminis. On the set-up: key to Degree of Disease Occurrence: Σ(index×no. leaves of index)/(4×no. investigated leaves)×100. The note with it: for Degree of Disease Occurrence: 19 days after seeding. As for the experimental part: as §2, §3

The test system of the next series is septoria leaf blotch. Nature of the series: Test Example 8: control test of septoria leaf blotch of wheat, cup in greenhouse, inoculated, wheat variety Apache. Type of series: in vivo, Septoria tritici. On the set-up: key to Degree of Disease Occurrence: Σ(index×leaves of index)/(4×investigated leaves)×100; 0–100 scale. The note with it: for Degree of Disease Occurrence: 31 days after seeding. The method, then: as §2
Seed having a mass of 1 kg of wheat (variety: Apache) was mixed into 100 ml of suspension water containing from 0.5 g or 5 g of the 3,4-dichloroisothiazole derivative of the compound (6) or (3) (synthesis was performed in accordance with a known method, formulated 10% wettable powder was used) and air-dried, and then, 12 seeds were sown in a plastic cup having a diameter of 6 cm containing river sand and managed in a greenhouse. The number of emerged seeds was investigated 12 days after seeding, and an emergence rate was calculated. In Comparative Examples 19 to 22, 20 ml of suspension water of an active ingredient, which had been adjusted to have a concentration shown in Table 9, was sprayed in a frame of 45 cm×45 cm in which a pot of wheat seedlings was placed (corresponding to 1000 L/ha) 12 days after seeding. A spore suspension in which conidiospores of septoria leaf blotch are suspended were sprayed and inoculated on leaves of wheat seedlings 12 days after seeding (after the sprayed liquid was dried in the case of Comparative Examples), a lesion area ratio of septoria leaf blotch in a second leaf was investigated 31 days after seeding according to the criteria in Table 1, and the degree of disease occurrence was calculated by the above calculation formula (1).

[7] abbreviates: Seed Treatment 0.5 g/Seed 1 kg (50 g/ha).
[8] abbreviates: Seed Treatment 5 g/Seed 1 kg (500 g/ha).
Setting [9] is: Foliage Treatment, spray 500 g/ha three times.
The mark [10] stands for this setting: Seed Treatment 5 g/Seed 1 kg (815 g/ha).
[11] abbreviates: Foliage Treatment, spray 50 ppm suspension water (50 g/ha) day 12, second leaf.
The mark [12] stands for this setting: Foliage Treatment, spray 500 ppm suspension water (500 g/ha) day 12, second leaf.
Where [13] appears, read: Seed Treatment 0.5 g/Seed 1 kg, inoculated day 12, second leaf.
Setting [14] is: Seed Treatment 5 g/Seed 1 kg (500 g/ha), inoculated day 12, second leaf.

On to `O=S1(=O)N=C(OCc2snc(Cl)c2Cl)c2ccccc21` [Compound (1), Dichlobentiazox], for which the “Emergence Rate (%)” value is recorded as 100% in series [1] (setting [7]); 96% in series [1] (setting [8]); 100% in series [5] (Foliage Treatment group, spray 50 ppm (50 g/ha) 14 days after seeding, emergence counted nine days after seeding); 97% in series [5] (Foliage Treatment group, spray 500 ppm (500 g/ha) 14 days after seeding, emergence counted nine days after seeding); 97% in series [5] (Seed Treatment 0.5 g/Seed 1 kg (50 g/ha), nine days after seeding); 100% in series [5] (Seed Treatment 5 g/Seed 1 kg (500 g/ha), nine days after seeding). Moreover, the “Degree of Disease Occurrence” value was 10.7 in the series with powdery mildew [2] (setting [7]); 0.0 in the series on powdery mildew [2] (setting [8]); 12.6 with powdery mildew [3] (setting [9]); 0.6 with powdery mildew [3] (setting [10]); 52.8 in the series with powdery mildew [6] (Foliage Treatment, spray 50 ppm suspension water (50 g/ha) day 14, first leaf); 44.4 in the series on powdery mildew [6] (Foliage Treatment, spray 500 ppm suspension water (500 g/ha) day 14, first leaf). In addition, the “Degree of Disease Occurrence” value in the series on powdery mildew [6] (Seed Treatment 0.5 g/Seed 1 kg (50 g/ha), inoculated day 14, first leaf) stood at 10.1; with powdery mildew [6] (Seed Treatment 5 g/Seed 1 kg (500 g/ha), inoculated day 14, first leaf) it was 9.0. In the series on powdery mildew [2] (seed treatment), the “disease occurrence under artificial inoculation of powdery mildew” value is on record as “the disease occurrence was suppressed”. Further, the “disease occurrence of powdery mildew, seed treatment compared with foliage spraying of dichlobentiazox (Comparative Example 1)” value with powdery mildew [3] (Example 1, seed treatment) is “more suppressed”. The “Disease Leaf Rate (%)” value in the series with powdery mildew [3] (setting [9]) came out at 58.9%; with powdery mildew [3] (setting [10]), 4.4%. Further, in the series on powdery mildew [3] (seed treatment), the “disease occurrence of powdery mildew, seed treatment compared with foliage spraying of azoxystrobin and propiconazole (Comparative Examples 2 and 3)” value is “more suppressed”. Besides, the “Culm Length (cm)” value in series [4] (Dichlobentiazox Seed Treatment 5 g/Seed 1 kg plus Propiconazole foliage spray 120 g/ha four times, harvested 106 days after seeding) is reported as 80.1 cm. The “Seed Yield” value in series [4] (Dichlobentiazox Seed Treatment 5 g/Seed 1 kg plus Propiconazole foliage spray 120 g/ha four times, wheat in 3 m2, 106 days after seeding) was 1015 g. Moreover, the “culm length in harvesting time, compared with no seed treatment” value in series [4] (seed treatment) is “slightly shorter”. In series [4] (seed treatment), the “yield amount of wheat grains, compared with no seed treatment” value was “slightly higher”. Also, the “disease occurrence of powdery mildew, seed treatment compared with spraying on foliage during a growing period” value in the series on powdery mildew [6] (seed treatment) is “suppressed lower”.
Turning to `OCc1snc(Cl)c1Cl` [Compound (3)], the “Degree of Disease Occurrence” value in the series with septoria leaf blotch (setting [11]) is 29.3; in the series on septoria leaf blotch (setting [12]), 37.5; in the series with septoria leaf blotch (setting [13]), 22.2; in the series on septoria leaf blotch (setting [14]) it was 8.2. For the same molecule, the “disease occurrence of septoria leaf blotch, seed treatment compared with spraying on foliage during a growing period” value with septoria leaf blotch is listed as “suppressed lower”.
In the same order, the values of `O=C(O)c1snc(Cl)c1Cl` [Compound (6)] are 29.5, 48.5, 16.1, 4.2 and “suppressed lower”.
